Reference: patent publication US10138207B2, “Benzomorphan analogs and the use thereof” (priority 2012, dated 2018)

What was measured:
κ opioid receptor = κ opioid receptor (Homo sapiens, UniProt P41145); test: biochemical; type: binding; set-up: expressed in transfected cells; host or cells: HEK 293 (in-house membrane prep); settings: HEK-293 or CHO cells
μ-opioid receptor [1] = target: T1, μ-opioid receptor (Homo sapiens, UniProt P35372); test: μ-opioid receptor [35S]GTPγS functional assay, U-2 OS cells; type: biochemical; set-up: expressed in transfected cells; host or cells: U-2 OS; settings: for Emax: relative to DAMGO, read-out: GTPγS μ Emax
T1 sequence (P35372 whole entry, species assumed): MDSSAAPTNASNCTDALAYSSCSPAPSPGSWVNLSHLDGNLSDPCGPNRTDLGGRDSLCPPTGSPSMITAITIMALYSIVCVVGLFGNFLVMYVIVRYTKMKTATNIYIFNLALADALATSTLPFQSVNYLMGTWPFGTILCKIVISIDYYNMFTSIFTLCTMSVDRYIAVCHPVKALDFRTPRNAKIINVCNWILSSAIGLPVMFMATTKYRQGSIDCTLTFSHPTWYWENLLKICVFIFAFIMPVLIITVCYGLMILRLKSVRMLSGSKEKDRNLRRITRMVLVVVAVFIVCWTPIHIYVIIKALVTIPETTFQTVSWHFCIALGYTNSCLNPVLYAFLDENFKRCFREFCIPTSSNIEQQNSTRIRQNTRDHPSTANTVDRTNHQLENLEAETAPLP

μ-opioid receptor [2] = target: T1, μ-opioid receptor; test: μ-opioid receptor [35S]GTPγS functional assay, HEK-293 or CHO cells; settings: for Emax: read-out: GTPγS μ Emax
[3] = U-2 OS cells, read-out: GTPγS μ EC50

κ opioid receptor, sequence (P41145 whole entry): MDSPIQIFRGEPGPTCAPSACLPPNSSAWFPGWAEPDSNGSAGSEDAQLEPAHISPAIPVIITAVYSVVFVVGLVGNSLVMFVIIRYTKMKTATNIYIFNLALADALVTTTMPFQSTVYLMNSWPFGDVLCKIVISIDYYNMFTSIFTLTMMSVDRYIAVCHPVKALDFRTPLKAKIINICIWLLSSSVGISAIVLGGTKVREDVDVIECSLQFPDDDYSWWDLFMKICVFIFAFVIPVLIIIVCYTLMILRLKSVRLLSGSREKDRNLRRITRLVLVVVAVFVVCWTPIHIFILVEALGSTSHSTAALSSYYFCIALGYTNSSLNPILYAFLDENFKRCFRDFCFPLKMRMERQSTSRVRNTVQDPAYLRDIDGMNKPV

Compound	Ki (κ opioid receptor)	EC50 (μ-opioid receptor [2])	Ki (κ opioid receptor; bound in μM)	other results
COc1ccc2c(c1)[C@@]1(C)CCN(C)C(C2)C1NC(=O)/C=C/c1ccoc1 (stereo in doubt) [Compound 23, (E)-3-(furan-3-yl)-N-((2R,6R,11S)-8-methoxy-3,6-dimethyl-1,2,3,4,5,6-hexahydro-2,6-methanobenzo[d]azocin-11-yl)acrylamide]	13.2 µM	–	–	–
CN1CC[C@]2(C)c3cc(O)ccc3CC1C2N(C)C(=O)CCC(=O)O (stereo in doubt) [Compound 28, 4-(((2R,6R,11S)-8-hydroxy-3,6-dimethyl-1,2,3,4,5,6-hexahydro-2,6-methanobenzo[d]azocin-11-yl)(methyl)amino)-4-oxobutanoic acid]	18.2 µM	–	–	EC50 (μ-opioid receptor [1]; [3]): 1.56 ± 0.106 µM; Emax (μ-opioid receptor [1]; U-2 OS cells): 74.7 ± 4.63%
CN1CC[C@]2(C)c3cc(O)ccc3CC1C2N(C)C(=O)Nc1ccc(C(=O)O)cc1 (stereo in doubt) [Compound 45, 4-(3-((2R,6R,11S)-8-hydroxy-3,6-dimethyl-1,2,3,4,5,6-hexahydro-2,6-methanobenzo[d]azocin-11-yl)-3-methylureido)benzoic acid]	–	3.85 ± 0.839 µM	> 20 µM	Emax (μ-opioid receptor [2]): 17 ± 3.06%
CN1CC[C@]2(C)c3cc(O)ccc3CC1C2N(C)C(=O)Nc1ccc(C(=O)O)cc1 (stereo in doubt) [Compound 46, 4-(3-((2R,6R,11R)-8-hydroxy-3,6-dimethyl-1,2,3,4,5,6-hexahydro-2,6-methanobenzo[d]azocin-11-yl)-3-methylureido)benzoic acid]	–	13.4 ± 2.99 µM	> 20 µM	Emax (μ-opioid receptor [2]): 36.7 ± 3.18%
CN1CC[C@]2(C)c3cc(O)ccc3CC1C2N(C)C(=O)c1ccccc1C(=O)O (stereo in doubt) [Compound 49, 2-(((2R,6R,11S)-8-hydroxy-3,6-dimethyl-1,2,3,4,5,6-hexahydro-2,6-methanobenzo[d]azocin-11-yl)(methyl)carbamoyl)benzoic acid]	–	> 20 µM	> 20 µM	Emax (μ-opioid receptor [2]): 31.3 ± 5.36%
CN1CC[C@]2(C)c3cc(O)ccc3CC1C2Nc1ccc(CCS(N)(=O)=O)cc1 (stereo in doubt) [Compound 58, 2-(4-(((2R,6R,11S)-8-hydroxy-3,6-dimethyl-1,2,3,4,5,6-hexahydro-2,6-methanobenzo[d]azocin-11-yl)amino)phenyl)ethanesulfonamide]	0.336 ± 0.0875 µM	0.751 ± 0.0433 µM	–	Emax (μ-opioid receptor [2]): 110 ± 7.55%
CN1CC[C@]2(C)c3cc(O)ccc3CC1C2N(C)C(=O)NCCC(=O)O (stereo in doubt) [Compound 68, 3-(3-((2R,6R,11S)-8-hydroxy-3,6-dimethyl-1,2,3,4,5,6-hexahydro-2,6-methanobenzo[d]azocin-11-yl)-3-methylureido)propanoic acid]	0.799 ± 0.0982 µM	0.55 ± 0.0316 µM	–	Emax (μ-opioid receptor [2]): 98 ± 1.73%
CN(C)C(=O)C(CCN1CC[C@]2(C)c3cc(O)ccc3CC1C2N(C)C(=O)Nc1ccc(C#N)cc1)(c1ccccc1)c1ccccc1 (stereo in doubt) [Compound 84, 4-((2R,6R,11S)-11-(3-(4-cyanophenyl)-1-methylureido)-8-hydroxy-6-methyl-1,2,5,6-tetrahydro-2,6-methanobenzo[d]azocin-3(4H)-yl)-N,N-dimethyl-2,2-diphenylbutanamide]	0.269 ± 0.0277 µM	–	–	EC50 (μ-opioid receptor [1]; [3]): 0.0839 ± 0.0133 µM; Emax (μ-opioid receptor [1]; U-2 OS cells): 90.7 ± 1.86%
CN[C@@H]1C2Cc3ccc(OC)cc3[C@@]1(C)CCN2C [Compound 8, (6R,11S)-8-methoxy-N,3,6-trimethyl-1,2,3,4,5,6-hexahydro-2,6-methanobenzo[d]azocin-11-amine]	–	–	> 20 µM	–
CN[C@H]1C2Cc3ccc(OC)cc3[C@@]1(C)CCN2C [Compound 9, (6R,11R)-8-methoxy-N,3,6-trimethyl-1,2,3,4,5,6-hexahydro-2,6-methanobenzo[d]azocin-11-amine]	18.9 ± 3.13 µM	–	–	–
CON=C1C2Cc3ccc(OC)cc3C1(C)CCN2CC1CC1 (stereo not drawn) [Compound 10, 3-(cyclopropylmethyl)-8-methoxy-6-methyl-1,2,3,4,5,6-hexahydro-2,6-methanobenzo[d]azocin-11-one O-methyl Oxime]	2.14 ± 0.151 µM	–	–	–
COc1ccc2c(c1)[C@@]1(C)CCN(C)C(C2)[C@@H]1CO [Compound 11, ((6S,11R)-8-methoxy-3,6-dimethyl-1,2,3,4,5,6-hexahydro-2,6-methanobenzo[d]azocin-11-yl)methanol]	–	–	> 20 µM	–
CCOC(=O)/C=C1\C2Cc3ccc(OC)cc3C1(C)CCN2C (stereo not drawn) [Compound 12]	–	–	> 20 µM	–
COc1ccc2c(c1)C1(C)CCN(C)C(C2)/C1=C\C(=O)O (stereo not drawn) [Compound 13, (Z)-2-(8-methoxy-3,6-dimethyl-1,2,3,4,5,6-hexahydro-2,6-methanobenzo[d]azocin-11-ylidene)acetic acid]	–	–	> 20 µM	–
CCOC(=O)C[C@H]1C2Cc3ccc(OC)cc3[C@@]1(C)CCN2C [Compound 14, ethyl 2-((6S,11R)-8-methoxy-3,6-dimethyl-1,2,3,4,5,6-hexahydro-2,6-methanobenzo[d]azocin-11-yl)acetate]	14.3 µM	–	–	–
COc1ccc2c(c1)[C@@]1(C)CCN(C)C(C2)[C@@H]1CC(=O)O [Compound 15, 2-((6S,11R)-8-methoxy-3,6-dimethyl-1,2,3,4,5,6-hexahydro-2,6-methanobenzo[d]azocin-11-yl)acetic acid]	–	–	> 20 µM	–
CN1CCC2(C)C(=NO)C1Cc1ccc(O)cc12 (stereo not drawn) [Compound 18, 8-hydroxy-3,6-dimethyl-1,2,3,4,5,6-hexahydro-2,6-methanobenzo[d]azocin-11-one oxime]	5.58 ± 1.01 µM	–	–	–
COc1ccc2c(c1)C1(C)CCN(CCC(C(=O)N(C)C)(c3ccccc3)c3ccccc3)C(C2)C1=NO (stereo not drawn) [Compound 19, 4-(11-(hydroxyimino)-8-methoxy-6-methyl-1,2,5,6-tetrahydro-2,6-methanobenzo[d]azocin-3(4H)-yl)-N,N-dimethyl-2,2-diphenylbutanamide]	8.52 ± 0.605 µM	–	–	–
COc1ccc2c(c1)[C@@]1(C)CCN(C)C(C2)[C@H]1N(C)C(=O)/C=C/c1ccoc1 [Compound 20, (E)-3-(furan-3-yl)-N-((6R,11S)-8-methoxy-3,6-dimethyl-1,2,3,4,5,6-hexahydro-2,6-methanobenzo[d]azocin-11-yl)-N-methylacrylamide]	1.95 ± 0.538 µM	–	–	–
CN(C)C(=O)C(CCN1CC[C@]2(C)c3cc(O)ccc3CC1[C@@H]2O)(c1ccccc1)c1ccccc1 [Compound 21, 4-((6R,11R)-8,11-dihydroxy-6-methyl-1,2,5,6-tetrahydro-2,6-methanobenzo[d]azocin-3(4H)-yl)-N,N-dimethyl-2,2-diphenylbutanamide]	1.22 ± 0.332 µM	–	–	–
COc1ccc2c(c1)[C@@]1(C)CCN(C)[C@@H](C2)C1=NNC(=O)c1ccc(F)cc1 [Compound 26, 4-fluoro-N′-((2S,6R)-8-methoxy-3,6-dimethyl-1,2,3,4,5,6-hexahydro-2,6-methanobenzo[d]azocin-11-ylidene)benzohydrazide]	–	–	> 20 µM	EC50 (μ-opioid receptor [1]; GTPγS μ EC50, U-2 OS cells): 1.19 ± 0.0939 µM; Emax (μ-opioid receptor [1]; U-2 OS cells): 91 ± 7.09%
CN1CC[C@]2(C)c3cc(O)ccc3C[C@@H]1[C@H]2COc1cncc(C(=O)O)c1 [Compound 33, 5-(((2R,6S,11S)-8-hydroxy-3,6-dimethyl-1,2,3,4,5,6-hexahydro-2,6-methanobenzo[d]azocin-11-yl)methoxy)nicotinic acid]	2.84 ± 0.342 µM	2.45 ± 0.167 µM	–	Emax (μ-opioid receptor [2]): 49 ± 3.67%
CN1CC[C@]2(C)c3cc(O)ccc3CC1[C@@H]2COc1cncc(C(=O)O)c1 [Compound 34, 5-(((6S,11R)-8-hydroxy-3,6-dimethyl-1,2,3,4,5,6-hexahydro-2,6-methanobenzo[d]azocin-11-yl)methoxy)nicotinic acid]	5.99 ± 0.604 µM	3.64 ± 0.373 µM	–	Emax (μ-opioid receptor [2]): 16 ± 3.46%
CN1CC[C@]2(C)c3cc(O)ccc3CC1[C@@H]2CC(=O)Nc1ccccc1C(=O)O [Compound 35, 2-(2-((6S,11R)-8-hydroxy-3,6-dimethyl-1,2,3,4,5,6-hexahydro-2,6-methanobenzo[d]azocin-11-yl)acetamido)benzoic acid]	–	2.57 ± 0.783 µM	> 20 µM	Emax (μ-opioid receptor [2]): 23 ± 0.58%
COc1ccc2c(c1)[C@@]1(C)CCN(C)C(C2)[C@@H]1c1cccc(C#N)c1 [Compound 36, 3-((6S,11R)-8-methoxy-3,6-dimethyl-1,2,3,4,5,6-hexahydro-2,6-methanobenzo[d]azocin-11-yl)benzonitrile]	4.19 ± 1.05 µM	> 20 µM	–	–
CN1CC[C@]2(C)c3cc(O)ccc3C[C@@H]1[C@H]2N(C)C(=O)Nc1ccc(C#N)cc1 [Compound 79, 3-(4-cyanophenyl)-1-((2R,6R,11S)-8-hydroxy-3,6-dimethyl-1,2,3,4,5,6-hexahydro-2,6-methanobenzo[d]azocin-11-yl)-1-methylurea]	3.14 ± 0.805 µM	–	–	EC50 (μ-opioid receptor [1]; [3]): 2.2 ± 0.668 µM; Emax (μ-opioid receptor [1]; U-2 OS cells): 49 ± 3.46%
COc1ccc2c(c1)[C@@]1(C)CCN(CC3CC3)C(C2)[C@H]1N(C)C(=O)Nc1ccc(C(N)=O)cc1 [Compound 82]	10.2 µM	–	–	EC50 (μ-opioid receptor [1]; U-2 OS cells, bound in μM, read-out: GTPγS μ EC50): > 20 µM; Emax (μ-opioid receptor [1]; U-2 OS cells): 31.7 ± 5.36%
COc1ccc2c(c1)[C@@]1(C)CCN(CC3CC3)[C@H](C2)[C@H]1N(C)C(=O)/C=C/c1ccoc1 [Compound 85, (E)-N-((2R,6R,11S)-3-(cyclopropylmethyl)-8-methoxy-6-methyl-1,2,3,4,5,6-hexahydro-2,6-methanobenzo[d]azocin-11-yl)-3-(furan-3-yl)-N-methylacrylamide]	0.701 ± 0.0941 µM	–	–	EC50 (μ-opioid receptor [1]; [3]): 3.24 ± 0.77 µM; Emax (μ-opioid receptor [1]; U-2 OS cells): 19.3 ± 2.33%
COc1ccc2c(c1)[C@@]1(C)CCN(CC3CC3)[C@H](C2)[C@H]1N(C)C(=O)/C=C\c1ccoc1 [Compound 86, (Z)—N-((2R,6R,11S)-3-(cyclopropylmethyl)-8-methoxy-6-methyl-1,2,3,4,5,6-hexahydro-2,6-methanobenzo[d]azocin-11-yl)-3-(furan-3-yl)-N-methylacrylamide]	0.979 ± 0.146 µM	–	–	EC50 (μ-opioid receptor [1]; [3]): 2.15 ± 0.21 µM; Emax (μ-opioid receptor [1]; U-2 OS cells): 14.7 ± 0.88%
